We go through one molecule from ChEMBL document CHEMBL5723583, “Data for DCP probe BAY-9835” (2024).

The target in data set [1] is Alpha-2B adrenergic receptor (Homo sapiens) (UniProt P18089). The experiment in a line: Inhibition of Adrenergic alpha2B at 10.0 µM in the Eurofins-Panlabs selectivity screen. Particulars: Compound concentration 10.0 uM.
Data set [2] addresses A disintegrin and metalloproteinase with thrombospondin motifs 4 (Homo sapiens, UniProt O75173). The experiment in a line: IC50 of hADAMTS4 at 1.0 µM in the Bayer in-house protease panel.
Data set [3] concerns the target Disintegrin and metalloproteinase domain-containing protein 10 (Homo sapiens, UniProt O14672). The experiment in a line: IC50 of hADAM10 at 1.0 µM in the Bayer in-house protease panel.
The target in data set [4] is Macrophage metalloelastase (Homo sapiens, UniProt P39900). The data set can be described thus: IC50 of hMMP12 at 1.0 µM in the Bayer in-house protease panel.
Sequence of Macrophage metalloelastase (P39900 whole entry): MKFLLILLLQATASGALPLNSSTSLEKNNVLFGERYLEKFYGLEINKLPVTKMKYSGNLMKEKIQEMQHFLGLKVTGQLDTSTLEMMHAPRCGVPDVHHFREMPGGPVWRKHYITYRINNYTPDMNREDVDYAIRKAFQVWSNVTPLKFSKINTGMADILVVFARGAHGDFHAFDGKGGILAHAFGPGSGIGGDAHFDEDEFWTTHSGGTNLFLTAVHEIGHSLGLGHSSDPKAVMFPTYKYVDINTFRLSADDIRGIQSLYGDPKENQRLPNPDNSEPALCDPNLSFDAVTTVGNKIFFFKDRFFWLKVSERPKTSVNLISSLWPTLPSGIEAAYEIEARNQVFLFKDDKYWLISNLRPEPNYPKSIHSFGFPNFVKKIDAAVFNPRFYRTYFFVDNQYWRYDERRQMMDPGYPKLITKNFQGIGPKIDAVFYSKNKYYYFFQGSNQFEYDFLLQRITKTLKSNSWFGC
For data set [5], the target named is Matrix metalloproteinase-15 (Homo sapiens, UniProt P51511). The experiment in a line: IC50 of hMMP15 at 1.0 µM in the Bayer in-house protease panel.
Data set [6] deals with Aldo-keto reductase family 1 member B1 (Homo sapiens) (UniProt P15121). The experiment in a line: Inhibition of Aldose Reductase at 10.0 µM in the Eurofins-Panlabs selectivity screen. Conditions: Rattus norvegicus; Compound concentration 10.0 uM.
In data set [7] the target is Carbonic anhydrase 2 (Homo sapiens) (UniProt P00918). The data set can be described thus: Inhibition of Carbonic Anhydrase II at 10.0 µM in the Eurofins-Panlabs selectivity screen. Particulars: Compound concentration 10.0 uM.
The target in data set [8] is Monoamine oxidase B (MAO-B) (Homo sapiens, UniProt P27338). The data set can be described thus: Inhibition of Monoamine Oxidase MAO-B at 10.0 µM in the Eurofins-Panlabs selectivity screen. Particulars: compound concentration 10 uM.
The target of data set [9] is 3',5'-cyclic-AMP phosphodiesterase 4D (Homo sapiens) (UniProt Q08499). The data set can be described thus: Inhibition of Phosphodiesterase PDE4D2 at 10.0 µM in the Eurofins-Panlabs selectivity screen. Conditions: Compound concentration 10.0 uM.
In data set [10] the target is Thromboxane-A synthase (Homo sapiens) (UniProt P24557). The data set can be described thus: Inhibition of Thromboxane Synthase at 10.0 µM in the Eurofins-Panlabs selectivity screen. Particulars: Compound concentration 10.0 uM.
Sequence of Thromboxane-A synthase (Homo sapiens) (P24557 whole entry): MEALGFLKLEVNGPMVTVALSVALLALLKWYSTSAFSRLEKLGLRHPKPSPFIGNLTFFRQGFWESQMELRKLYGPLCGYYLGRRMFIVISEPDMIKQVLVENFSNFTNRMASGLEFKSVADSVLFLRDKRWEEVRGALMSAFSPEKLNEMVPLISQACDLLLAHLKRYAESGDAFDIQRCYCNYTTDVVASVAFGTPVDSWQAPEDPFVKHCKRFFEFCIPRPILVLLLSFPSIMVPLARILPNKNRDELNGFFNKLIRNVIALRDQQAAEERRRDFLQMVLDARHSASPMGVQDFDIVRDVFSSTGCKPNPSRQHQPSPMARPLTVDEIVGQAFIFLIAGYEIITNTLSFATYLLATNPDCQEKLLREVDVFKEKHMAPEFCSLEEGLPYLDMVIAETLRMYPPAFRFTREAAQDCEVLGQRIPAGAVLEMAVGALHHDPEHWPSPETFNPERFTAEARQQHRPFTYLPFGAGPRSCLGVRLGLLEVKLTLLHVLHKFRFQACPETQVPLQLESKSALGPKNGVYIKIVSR
The target in data set [11] is Alpha-2A adrenergic receptor (Homo sapiens) (UniProt P08913). The experiment in a line: Inhibition of Adrenergic alpha2A at 10.0 µM in the Eurofins-Panlabs selectivity screen. Conditions: Compound concentration 10.0 uM.
Data set [12] has as its target Beta-3 adrenergic receptor (Homo sapiens) (UniProt P13945). The experiment in a line: Inhibition of Adrenergic beta3 at 10.0 µM in the Eurofins-Panlabs selectivity screen. Conditions: Compound concentration 10.0 uM.
In data set [13] the target is Cannabinoid receptor 2 (Homo sapiens) (UniProt P34972). The data set can be described thus: Inhibition of Cannabinoid CB2 at 10.0 µM in the Eurofins-Panlabs selectivity screen. Particulars: Compound concentration 10.0 uM.
Sequence of Cannabinoid receptor 2 (Homo sapiens) (P34972 whole entry): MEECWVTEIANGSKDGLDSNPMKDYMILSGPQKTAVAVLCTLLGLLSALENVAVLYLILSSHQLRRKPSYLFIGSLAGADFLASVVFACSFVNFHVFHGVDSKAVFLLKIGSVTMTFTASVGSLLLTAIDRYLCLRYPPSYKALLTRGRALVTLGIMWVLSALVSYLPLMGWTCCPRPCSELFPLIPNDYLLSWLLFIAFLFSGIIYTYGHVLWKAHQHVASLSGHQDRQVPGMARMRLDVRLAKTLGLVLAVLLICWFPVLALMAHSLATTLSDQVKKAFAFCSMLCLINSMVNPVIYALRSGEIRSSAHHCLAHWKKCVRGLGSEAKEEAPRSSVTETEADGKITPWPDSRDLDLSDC
For data set [14], the target named is GABA-A receptor; anion channel (Rattus norvegicus) (UniProt O09028+P15431+P18506+P18508+P19969+P20236+P23574+P23576+P28471+P28473+P30191+P62813+P63079+P63138+Q91ZM7+Q9ES14). The data set can be described thus: Inhibition of GABAA, Flunitrazepam, Central at 10.0 µM in the Eurofins-Panlabs selectivity screen. Conditions: Compound concentration 10.0 uM. Format: protein-complex assay.

Data set [15] concerns the target Insulin receptor (Homo sapiens) (UniProt P06213). The experiment in a line: Inhibition of Insulin at 10.0 µM in the Eurofins-Panlabs selectivity screen. Particulars: Rattus norvegicus; Compound concentration 10.0 uM.
Data set [16] deals with Motilin receptor (Homo sapiens) (UniProt O43193). The experiment in a line: Inhibition of Motilin at 10.0 µM in the Eurofins-Panlabs selectivity screen. Conditions: Compound concentration 10.0 uM.
For data set [17], the target named is Neuronal acetylcholine receptor; alpha3/beta4 (Homo sapiens) (UniProt P30926+P32297). The data set can be described thus: Inhibition of Nicotinic Acetylcholine alpha3beta4 at 10.0 µM in the Eurofins-Panlabs selectivity screen. Particulars: Compound concentration 10.0 uM. Format: protein-complex assay.
In data set [18] the target is 5-hydroxytryptamine receptor 2B (Homo sapiens) (UniProt P41595). The experiment in a line: Inhibition of Serotonin (5-Hydroxytryptamine) 5-HT2B at 10.0 µM in the Eurofins-Panlabs selectivity screen. Conditions: Compound concentration 10.0 uM.
Data set [19] addresses 5-hydroxytryptamine receptor 2C (Homo sapiens) (UniProt P28335). The experiment in a line: Inhibition of Serotonin (5-Hydroxytryptamine) 5-HT2C at 10.0 µM in the Eurofins-Panlabs selectivity screen. Conditions: Compound concentration 10.0 uM.
In data set [20] the target is P2X receptor (Rattus norvegicus) (UniProt P51579+P49653+P51578+Q64663+P47824+P51577+P49654). The data set can be described thus: Inhibition of Purinergic P2X at 10.0 µM in the Eurofins-Panlabs selectivity screen. Format: protein assay. Particulars: Compound concentration 10.0 uM.

Sequence of Beta-3 adrenergic receptor (Homo sapiens) (P13945 whole entry, looked up): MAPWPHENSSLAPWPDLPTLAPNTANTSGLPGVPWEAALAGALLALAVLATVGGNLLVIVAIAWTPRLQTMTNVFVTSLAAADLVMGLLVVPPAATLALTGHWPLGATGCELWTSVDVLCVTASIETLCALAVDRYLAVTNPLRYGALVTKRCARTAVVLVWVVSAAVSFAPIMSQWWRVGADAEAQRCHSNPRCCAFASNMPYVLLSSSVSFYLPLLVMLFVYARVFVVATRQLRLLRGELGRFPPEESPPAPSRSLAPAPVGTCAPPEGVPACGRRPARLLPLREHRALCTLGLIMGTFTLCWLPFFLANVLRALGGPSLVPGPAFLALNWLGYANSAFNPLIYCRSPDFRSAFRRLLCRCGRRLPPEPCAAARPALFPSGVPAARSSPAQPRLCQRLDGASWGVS
Sequence of 5-hydroxytryptamine receptor 2C (Homo sapiens) (P28335 whole entry): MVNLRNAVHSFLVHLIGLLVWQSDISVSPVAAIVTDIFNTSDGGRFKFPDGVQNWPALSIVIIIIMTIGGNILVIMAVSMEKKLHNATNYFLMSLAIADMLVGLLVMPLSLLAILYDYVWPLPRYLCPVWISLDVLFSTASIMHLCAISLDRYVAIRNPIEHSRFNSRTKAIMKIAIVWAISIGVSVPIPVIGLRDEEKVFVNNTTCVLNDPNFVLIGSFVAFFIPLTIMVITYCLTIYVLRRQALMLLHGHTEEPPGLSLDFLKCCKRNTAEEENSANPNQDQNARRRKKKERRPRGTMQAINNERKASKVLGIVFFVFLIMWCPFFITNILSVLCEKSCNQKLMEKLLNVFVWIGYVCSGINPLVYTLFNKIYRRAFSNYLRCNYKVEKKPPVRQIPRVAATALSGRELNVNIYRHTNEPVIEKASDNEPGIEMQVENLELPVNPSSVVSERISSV
Sequence of Insulin receptor (Homo sapiens) (P06213 28-758 limits assumed): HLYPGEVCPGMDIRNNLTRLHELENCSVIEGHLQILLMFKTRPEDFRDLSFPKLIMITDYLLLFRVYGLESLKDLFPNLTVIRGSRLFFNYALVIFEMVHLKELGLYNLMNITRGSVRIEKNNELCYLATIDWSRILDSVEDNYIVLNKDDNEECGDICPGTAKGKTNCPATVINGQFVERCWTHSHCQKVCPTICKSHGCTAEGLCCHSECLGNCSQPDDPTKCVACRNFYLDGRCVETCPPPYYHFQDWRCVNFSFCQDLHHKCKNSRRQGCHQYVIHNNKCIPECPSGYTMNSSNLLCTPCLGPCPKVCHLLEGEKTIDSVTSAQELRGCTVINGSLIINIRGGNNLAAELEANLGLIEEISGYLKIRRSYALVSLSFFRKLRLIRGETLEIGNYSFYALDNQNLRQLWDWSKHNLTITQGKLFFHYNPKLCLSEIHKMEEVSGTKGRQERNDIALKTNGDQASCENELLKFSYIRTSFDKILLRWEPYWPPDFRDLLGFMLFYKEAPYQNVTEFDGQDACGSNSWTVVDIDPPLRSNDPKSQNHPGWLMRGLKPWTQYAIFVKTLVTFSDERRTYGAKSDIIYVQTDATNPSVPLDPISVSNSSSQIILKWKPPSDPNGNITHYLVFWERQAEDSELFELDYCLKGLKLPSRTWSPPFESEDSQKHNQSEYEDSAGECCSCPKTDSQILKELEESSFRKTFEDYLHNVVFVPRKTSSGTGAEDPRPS
Sequence of Insulin receptor (Homo sapiens) (P06213 763-1382 limits assumed): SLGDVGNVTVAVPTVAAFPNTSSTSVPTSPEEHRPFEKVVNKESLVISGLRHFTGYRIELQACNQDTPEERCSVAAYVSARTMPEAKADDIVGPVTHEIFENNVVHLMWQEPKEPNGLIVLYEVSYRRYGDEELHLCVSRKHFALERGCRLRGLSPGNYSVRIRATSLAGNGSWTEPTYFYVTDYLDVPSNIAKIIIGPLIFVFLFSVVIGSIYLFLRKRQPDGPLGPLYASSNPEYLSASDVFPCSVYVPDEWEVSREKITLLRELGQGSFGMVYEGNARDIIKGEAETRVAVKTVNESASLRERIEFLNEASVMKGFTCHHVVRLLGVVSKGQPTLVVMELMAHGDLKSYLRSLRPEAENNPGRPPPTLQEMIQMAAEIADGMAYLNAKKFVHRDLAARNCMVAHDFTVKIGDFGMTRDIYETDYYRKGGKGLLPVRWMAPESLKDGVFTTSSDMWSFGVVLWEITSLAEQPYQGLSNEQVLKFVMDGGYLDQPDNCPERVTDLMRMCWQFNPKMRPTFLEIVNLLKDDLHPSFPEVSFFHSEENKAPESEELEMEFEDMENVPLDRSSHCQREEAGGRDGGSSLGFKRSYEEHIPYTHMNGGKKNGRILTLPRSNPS
Sequence of Alpha-2B adrenergic receptor (Homo sapiens) (P18089 whole entry): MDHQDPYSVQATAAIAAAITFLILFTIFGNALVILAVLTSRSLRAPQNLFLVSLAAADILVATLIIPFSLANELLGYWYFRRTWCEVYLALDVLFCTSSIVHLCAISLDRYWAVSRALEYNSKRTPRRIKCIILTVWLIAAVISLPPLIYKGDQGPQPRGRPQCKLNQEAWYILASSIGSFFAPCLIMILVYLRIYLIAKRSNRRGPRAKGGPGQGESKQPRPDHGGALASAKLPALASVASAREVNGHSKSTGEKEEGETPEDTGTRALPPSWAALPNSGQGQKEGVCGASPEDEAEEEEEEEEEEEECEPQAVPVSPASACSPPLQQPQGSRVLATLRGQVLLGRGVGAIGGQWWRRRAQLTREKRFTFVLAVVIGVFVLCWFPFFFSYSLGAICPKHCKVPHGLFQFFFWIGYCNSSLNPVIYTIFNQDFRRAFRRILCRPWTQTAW
Sequence of Disintegrin and metalloproteinase domain-containing protein 10 (O14672 whole entry, the tested form may be a part): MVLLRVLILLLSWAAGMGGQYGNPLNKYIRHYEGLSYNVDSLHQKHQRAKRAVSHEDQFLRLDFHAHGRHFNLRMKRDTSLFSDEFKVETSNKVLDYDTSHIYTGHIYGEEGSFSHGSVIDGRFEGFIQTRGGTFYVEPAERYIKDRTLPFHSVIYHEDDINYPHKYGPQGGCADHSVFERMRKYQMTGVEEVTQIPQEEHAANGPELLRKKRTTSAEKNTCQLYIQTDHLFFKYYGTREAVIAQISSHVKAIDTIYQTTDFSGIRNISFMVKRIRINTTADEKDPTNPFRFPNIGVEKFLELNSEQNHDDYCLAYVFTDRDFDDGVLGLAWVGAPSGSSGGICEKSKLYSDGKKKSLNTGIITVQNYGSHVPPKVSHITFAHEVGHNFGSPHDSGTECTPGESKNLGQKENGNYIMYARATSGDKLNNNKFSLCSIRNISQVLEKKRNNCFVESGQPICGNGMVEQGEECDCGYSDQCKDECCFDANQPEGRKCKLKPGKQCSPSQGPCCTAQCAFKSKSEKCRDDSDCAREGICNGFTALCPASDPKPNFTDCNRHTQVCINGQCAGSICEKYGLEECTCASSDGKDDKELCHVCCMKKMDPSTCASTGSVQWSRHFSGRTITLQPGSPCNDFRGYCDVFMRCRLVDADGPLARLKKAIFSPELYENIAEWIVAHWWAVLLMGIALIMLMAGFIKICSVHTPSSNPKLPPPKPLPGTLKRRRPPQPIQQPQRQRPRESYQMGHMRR

`Cn1nccc1[C@]1(CNC(=O)c2ccc(F)c(F)c2-c2ccc(C(F)(F)F)cc2)NC(=O)NC1=O`: the inhibition is -3% in data set [1]; -4% in data set [6]; -2% in data set [7]; 3% in data set [9]; 11% in [10]; -3% in [11]. The inhibition in [12] is -3%; in data set [13], -1%; in data set [14], -6%; in [15] it was -8%; in data set [16], 3%; in data set [17] it was 2%. The values for the inhibition in data set [18], in data set [19] and in [20] were -1%, -1% and 0%, respectively. In addition, the half-maximal inhibitory concentration (IC50) in data set [2] came to 6.73 µM; in data set [3], 32.8 µM; in [4], 5.38 µM; in [5] it was 78.5 µM. The inhibition at 10 µM in data set [8] was 10%.
